Test results from US4769368A, “2,3,4,8,9,9A-Hexahydro-4-aryl-1H-indeno(1,7-CD)azepines” (SmithKline Beckman Corporation, priority 1986, dated 1988).
Where a name gives a salt, the structure may show the parent alone.

Key:
[1] = test system: D2-dopamine sites (bovine pituitary); test: Displacement of [3H] spiroperidol, bovine pituitary (D2) binding; details: at 10^-5 M, 10 µM
Excerpt: (§1) As an example of the D1 -dopamine specificity of the compounds of this invention, a species of formula I, 6,7-dihydroxy-2,3,4,8,9-9a-hexahydro-4-phenyl-1H-indeno[1,7-cd]azepine hydrobromide, was submitted to standard binding tests for D1 and D2 -dopamine sites, see K. Flaim, loc. cit. for testing protocols.
[^3 H] spiroperidol bovine

[2] = target: T1, D1-dopamine sites (rat caudate) (Rattus norvegicus, UniProt P18901); test: Displacement of [3H] fenoldopam, rat caudate (D1) binding; details: in words
T1 construct: rat caudate; from tissue; host or cells: rat caudate
T1 sequence (P18901 whole entry): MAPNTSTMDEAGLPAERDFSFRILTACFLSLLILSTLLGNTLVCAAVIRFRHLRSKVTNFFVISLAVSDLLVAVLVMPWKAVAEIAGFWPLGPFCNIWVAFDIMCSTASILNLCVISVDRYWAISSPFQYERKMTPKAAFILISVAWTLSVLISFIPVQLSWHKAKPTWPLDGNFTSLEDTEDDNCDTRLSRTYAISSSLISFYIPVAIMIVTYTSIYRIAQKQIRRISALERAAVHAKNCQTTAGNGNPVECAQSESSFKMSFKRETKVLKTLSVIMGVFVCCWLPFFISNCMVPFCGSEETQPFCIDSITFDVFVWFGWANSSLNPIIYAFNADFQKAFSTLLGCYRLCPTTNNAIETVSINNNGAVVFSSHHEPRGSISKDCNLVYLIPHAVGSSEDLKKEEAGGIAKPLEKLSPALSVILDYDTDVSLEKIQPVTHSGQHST
Excerpt: as §1
[^3 H] fenoldopam rat caudate

[3] = in words; peripheral dopaminergic agent; cited from earlier work
[4] = test system: dopamine D1 and D2 receptor; details: in words; U.S. Pat. No. 4,197,297; cited from earlier work

Structure (SMILES)	Displacement of [3H] spiroperidol bovine pituitary (D2) [1] [%]	potency and selectivity for D1 dopamine sites [2]	described activity [3]	agonist activity [4]
Oc1cc2c3c(c1O)CC[C@H]3CNC[C@H]2c1ccccc1 (stereo in doubt) [cis, cis-6,7-dihydroxy-2,3,4,8,9,9a-hexahydro-4-phenyl-1H-indeno[1-7-cd]azepinehydrobromide]	14	very potent and selective		
Br.Oc1cc2c3c(c1O)CC[C@@H]3CNC[C@@H]2c1ccccc1 (stereo in doubt) [trans, trans-6,7-dihydroxy-2,3,4,8,9,9a-hexahydro-4-phenyl-1H-indeno[1,7-cd]azepine hydrobromide]	0			
Oc1ccc(C2CNCCc3c2cc(O)c(O)c3Cl)cc1 (centres unmarked) [fenoldopam]			renal dilating, anti-hypertensive, anti-shock and anti-congestive heart failure activity	D1 and some D2 agonist activity
